From ChEMBL document CHEMBL1143609, “Conformationally restricted analogues of psorospermin: design, synthesis, and bioactivity of natural-product-related bisfuranoxanthones” (J Med Chem, 2005)

How the values were obtained:
Type in all cases: functional, cell-based
Conditions in all cases: Homo sapiens
NCI-H522 = test: Inhibitory concentration against H522 cell line
HT-29 = test: Inhibitory concentration against HT-29 cell line
HeLa = test: Inhibitory concentration against HeLa cell line
HepG2 = test: Inhibitory concentration against HepG2 cell line
COLO 320 = test: Inhibitory concentration against COLO 320 cell line
MIA PaCa-2 = test: Inhibitory concentration against MIA PaCa cell line

| SMILES | IC50 (NCI-H522) | IC50 (HT-29) | IC50 (HeLa) | IC50 (HepG2) | IC50 (COLO 320) | IC50 (MIA PaCa-2) |
| --- | --- | --- | --- | --- | --- | --- |
| C=C1CO[C@H]2c3c(cc(O)c4c(=O)c5cccc(OC)c5oc34)O[C@@H]12 | > 30 µM | > 30 µM | > 30 µM | > 30 µM | > 30 µM | > 30 µM |
| COc1cccc2c(=O)c3c(O)cc4c(c3oc12)C[C@H]([C@](C)(O)CO)O4 | > 30 µM | > 30 µM | > 30 µM | > 30 µM | > 30 µM | > 30 µM |
| COc1cccc2c(=O)c3c(O)cc4c(c3oc12)C[C@H]([C@@](C)(O)CO)O4 | 28.4 µM | > 30 µM | > 30 µM | > 30 µM | 19.2 µM | 23.8 µM |
| COc1cc2c(c3oc4c(O)cccc4c(=O)c13)C[C@H]([C@@]1(C)CO1)O2 [PSOROSPERMIN] | 0.45 µM | 0.64 µM | 0.71 µM | 0.38 µM | 0.069 µM | 0.21 µM |

The remaining lines, values ahead:

| IC50 (NCI-H522) | IC50 (HT-29) | IC50 (HeLa) | IC50 (HepG2) | IC50 (COLO 320) | IC50 (MIA PaCa-2) | SMILES |
| --- | --- | --- | --- | --- | --- | --- |
| 7.14 µM | 7.13 µM | 7.5 µM | > 30 µM | 0.9 µM | 3.76 µM | COc1cccc2c(=O)c3c(O)cc4c(c3oc12)[C@@H]1OC[C@](O)(CCl)[C@@H]1O4 |
| 20 µM | 36.7 µM | 19 µM | > 30 µM | 12.3 µM | 12.3 µM | COc1cccc2c(=O)c3c(O)cc4c(c3oc12)[C@@H]1OC[C@](O)(CO)[C@@H]1O4 |
| > 30 µM | > 30 µM | 23.5 µM | > 30 µM | > 30 µM | > 30 µM | COc1cccc2c(=O)c3c(O)c4c(cc3oc12)O[C@@H]1[C@H]4OC[C@@]1(C)O |
| 19.4 µM | > 30 µM | 32.5 µM | 13.1 µM | 9.19 µM | 10.9 µM | COc1cccc2c(=O)c3c(O)cc4c(c3oc12)[C@@H]1OC[C@]2(CO2)[C@@H]1O4 |
| > 30 µM | > 30 µM | 23.5 µM | > 30 µM | > 30 µM | > 30 µM | COc1cccc2c(=O)c3c(O)c4c(cc3oc12)O[C@@H]1[C@H]4OC[C@]1(C)O |
